The source made the active and inactive calls. The calls are words filed in the database; no cut-off is given here.

For test [1], the target named is T1, Endothelin-1 receptor (Homo sapiens, UniProt P25101).
T1 sequence (P25101 whole entry): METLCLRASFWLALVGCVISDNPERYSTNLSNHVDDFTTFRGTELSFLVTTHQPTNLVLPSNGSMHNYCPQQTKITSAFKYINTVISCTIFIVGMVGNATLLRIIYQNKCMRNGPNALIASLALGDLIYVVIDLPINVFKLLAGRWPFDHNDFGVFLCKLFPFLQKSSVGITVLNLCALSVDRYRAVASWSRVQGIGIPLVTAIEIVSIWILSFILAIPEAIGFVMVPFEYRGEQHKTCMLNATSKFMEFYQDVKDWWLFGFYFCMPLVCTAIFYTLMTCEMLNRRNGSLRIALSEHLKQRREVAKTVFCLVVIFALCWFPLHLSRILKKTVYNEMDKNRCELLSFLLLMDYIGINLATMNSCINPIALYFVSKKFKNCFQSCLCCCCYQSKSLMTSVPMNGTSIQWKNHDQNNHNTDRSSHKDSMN
Briefly: Displacement of 125I-labelled endothelin-1 from human ETA receptor expressed in CHOK1 cell membranes. Details: species or system CHO-K1.

For test [2], the target named is T2, Type-1 angiotensin II receptor (Homo sapiens, UniProt P30556).
T2 sequence (P30556 whole entry): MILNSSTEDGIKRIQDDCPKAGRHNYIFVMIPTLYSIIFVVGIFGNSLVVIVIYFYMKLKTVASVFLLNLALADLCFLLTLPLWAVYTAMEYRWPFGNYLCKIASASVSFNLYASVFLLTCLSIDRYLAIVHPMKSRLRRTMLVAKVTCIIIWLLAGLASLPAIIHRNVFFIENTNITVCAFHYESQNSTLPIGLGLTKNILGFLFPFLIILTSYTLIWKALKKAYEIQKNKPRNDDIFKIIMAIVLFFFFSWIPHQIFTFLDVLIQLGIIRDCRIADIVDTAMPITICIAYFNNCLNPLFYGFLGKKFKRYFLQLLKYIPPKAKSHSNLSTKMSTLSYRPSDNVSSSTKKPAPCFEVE
Briefly: Displacement of 125I-labelled Sar1-Ile8-angiotensin-2 from human AT1 receptor.

The subject of test [3] is Rattus norvegicus. Briefly: Antihypertensive activity in spontaneous hypertensive rat assessed as heart rate at 20 mg/kg, po after 1 to 24 hrs. In kind it is functional, organism-based.
Test [4] deals with Rattus norvegicus. Nature of the test: Antihypertensive activity in spontaneous hypertensive rat assessed as mean blood pressure at 20 mg/kg, po after 6 hrs. In kind it is functional.
For test [5], the system named is Rattus norvegicus. Briefly: Antihypertensive activity in spontaneous hypertensive rat assessed as mean blood pressure at 20 mg/kg, po after 24 hrs. In kind it is functional, organism-based.
In test [6] the test system is Rattus norvegicus. Nature of the test: Antihypertensive activity in spontaneous hypertensive rat assessed as time duration of lowering mean blood pressure >20 mmHg at 20 mg/kg, po. In kind it is functional.
Test [7] has as its system Rattus norvegicus. Nature of the test: Antihypertensive activity in spontaneous hypertensive rat assessed as mean blood pressure at 20 mg/kg, po after 4 hrs. In kind it is functional.

Consider `CCCc1nc2c(C)cc(C(=O)NCCc3ccccc3F)cc2n1Cc1ccc(-c2ccccc2C(=O)Nc2nnn[nH]2)cc1`, for which the IC50 in test [1] was 11000 nM; in test [2], 90 nM.

Take `CCCc1nc2c(C)cc(C(=O)NCCc3ccccc3OC)cc2n1Cc1ccc(-c2ccccc2C(=O)Nc2nnn[nH]2)cc1`: the 50% inhibitory concentration (IC50) in test [1] was 7000 nM; in test [2], 26.1 nM.

On to `CCCc1nc2c(C)cc(C(=O)NCCc3cc(OC)ccc3OC)cc2n1Cc1ccc(-c2ccccc2C(=O)Nc2nnn[nH]2)cc1`, for which the IC50 in test [1] was greater than 20000 nM; in test [2] it was 30.7 nM.

For the compound `CCCc1nc2c(C)cc(C(=O)NCc3ccc(OC)cc3)cc2n1Cc1ccc(-c2ccccc2C(=O)Nc2nnn[nH]2)cc1`, the figures for the IC50 in test [1] and in test [2] were greater than 20000 nM and 550 nM, respectively.

`CCCc1nc2c(C)cc(C(=O)NCCc3ccccc3)cc2n1Cc1ccc(-c2ccccc2C(=O)Nc2nnn[nH]2)cc1`: the IC50 was 126 nM in test [1] and 3.9 nM in test [2]. The outcome in test [3] and in test [5] was Active. In test [4], the Activity worked out at 24 mmHg. Moreover, the Time in test [6] is 4 h.

For the compound `CCCc1nc2c(C)cc(C(=O)NCCc3ccc(OC)cc3)cc2n1Cc1ccc(-c2ccccc2C(=O)Nc2nnn[nH]2)cc1`, the half-inhibitory concentration (IC50) in test [1] turned out to be 13000 nM; in test [2], 87.8 nM.

Turning to `CCCc1nc2c(C)cc(C(=O)NCCc3ccc(F)cc3)cc2n1Cc1ccc(-c2ccccc2C(=O)Nc2nnn[nH]2)cc1`, the IC50 in test [1] is greater than 20000 nM; in test [2], 140 nM.

With `CCCc1nc2c(C)cc(C(=O)NCCN3CCOCC3)cc2n1Cc1ccc(-c2ccccc2C(=O)Nc2nnn[nH]2)cc1`, the 50% inhibitory concentration (IC50) in test [1] was 165 nM; in test [2] it was 44 nM.

As for `CCCc1nc2c(C)cc(C(=O)NCCN3CCCC3)cc2n1Cc1ccc(-c2ccccc2C(=O)Nc2nnn[nH]2)cc1`, the values for the 50% inhibitory concentration (IC50) in test [1] and in test [2] were 7100 nM and 69.4 nM, respectively.

Take `CCCc1nc2c(C)cc(C(=O)NCc3ccccc3OC)cc2n1Cc1ccc(-c2ccccc2C(=O)Nc2nnn[nH]2)cc1`: the half-maximal inhibitory concentration (IC50) in test [1] is 7200 nM; in test [2] it was 73.3 nM.

For `CCCc1nc2c(C)cc(C(=O)NCCc3cccc(OC)c3)cc2n1Cc1ccc(-c2ccccc2C(=O)Nc2nnn[nH]2)cc1`, the values for the IC50 in test [1] and in test [2] were greater than 20000 nM and 36.9 nM, respectively.

Take `CCCc1nc2c(C)cc(C(=O)NCc3cccc(OC)c3)cc2n1Cc1ccc(-c2ccccc2C(=O)Nc2nnn[nH]2)cc1`: the concentration for half-maximal inhibition (IC50) in test [1] came out at 625 nM; in test [2] it was 53.9 nM.

Consider `CCCCNC(=O)c1cc(C)c2nc(CCC)n(Cc3ccc(-c4ccccc4C(=O)Nc4nnn[nH]4)cc3)c2c1`, for which the IC50 is greater than 20000 nM in test [1] and 439 nM in test [2].

In the case of `CCCc1nc2c(C)cc(C(=O)NCc3ccccc3)cc2n1Cc1ccc(-c2ccccc2C(=O)Nc2nnn[nH]2)cc1`, the IC50 in test [1] came to 10 nM; in test [2], 82 nM.

As to `CCCc1nc2c(C)cc(C(=O)NCCN3CCCCC3)cc2n1Cc1ccc(-c2ccccc2C(=O)Nc2nnn[nH]2)cc1`, the 50% inhibitory concentration (IC50) in test [1] is greater than 20000 nM; in test [2] it was 67.5 nM.

On to `CCCc1nc2c(C)cc(C(=O)NCCN3CCN(C)CC3)cc2n1Cc1ccc(-c2ccccc2C(=O)Nc2nnn[nH]2)cc1`, for which the IC50 in test [1] is 9100 nM; in test [2], 53.5 nM.

For `CCCc1nc2c(C)cc(C(=O)NCc3ccc(OC)c(OC)c3)cc2n1Cc1ccc(-c2ccccc2C(=O)Nc2nnn[nH]2)cc1`, the IC50 in test [1] came out at 10000 nM; in test [2] it was 32.9 nM.

On to `CCCc1nc2c(C)cc(C(=O)Nc3ccccc3)cc2n1Cc1ccc(-c2ccccc2C(=O)Nc2nnn[nH]2)cc1`, for which the IC50 in test [1] is 14000 nM; in test [2] it was 73.7 nM.

As to `CCCc1nc2c(C)cc(C(=O)NC(C)C)cc2n1Cc1ccc(-c2ccccc2C(=O)Nc2nnn[nH]2)cc1`, the IC50 was greater than 20000 nM in test [1] and 161 nM in test [2].

Consider `CCCc1nc2c(C)cc(C(=O)NC(C)(C)C)cc2n1Cc1ccc(-c2ccccc2C(=O)Nc2nnn[nH]2)cc1`, for which the figures for the half-inhibitory concentration (IC50) in test [1] and in test [2] were greater than 20000 nM and 390 nM, respectively.

As to `CCCc1nc2c(C)cc(C(=O)Nc3ccccc3OC)cc2n1Cc1ccc(-c2ccccc2C(=O)Nc2nnn[nH]2)cc1`, the half-maximal inhibitory concentration (IC50) in test [1] was determined as 886 nM; in test [2], 347 nM.

For the compound `CCCCC1=NC2(CCCC2)C(=O)N1Cc1ccc(-c2ccccc2-c2nnn[nH]2)cc1` [IRBESARTAN], the result in test [3] and in test [5] was Active. In test [6], the Time is 1 h. In addition, in test [7], the Activity is reported as 20 mmHg.

As for `CCCc1nc2c(C)cc(C(=O)NCCc3ccc(OC)c(OC)c3)cc2n1Cc1ccc(-c2ccccc2C(=O)Nc2nnn[nH]2)cc1`, the values for the IC50 in test [1] and in test [2] were greater than 20000 nM and 93 nM, respectively.

Turning to `CCCNC(=O)c1cc(C)c2nc(CCC)n(Cc3ccc(-c4ccccc4C(=O)Nc4nnn[nH]4)cc3)c2c1`, the IC50 was greater than 20000 nM in test [1] and 363 nM in test [2].

Values taken from ChEMBL document CHEMBL3751753, “Synthesis and biological evaluation of 4-[(benzimidazol-1-yl) methyl]biphenyl-2-amides as dual angiotensin II and endothelin A receptor antagonists” (Medchemcomm, 2015).
